According to the supplement of paper PMC10307832:

Legend:
Experiment in all cases: relative viability (nuclei count vs DMSO), 5 days (fraction); higher = more cells survive
VE-821 = compound: CS(=O)(=O)c1ccc(-c2cnc(N)c(C(=O)Nc3ccccc3)n2)cc1 [VE-821]
Procedure, shortened: (§1)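 Lung cancer cell lines received five library-drug doses (not always all listed) spaced by √10, pinned on vehicle-anchored 1536-well plates after an overnight stay at 37 °C. Five days later, with no medium change, nuclei were Hoechst-stained, imaged at 4× and counted with MetaXpress. Viability is treated-well nuclei relative to vehicle-well nuclei, as a median across plates. Passing plates had control CV below 25% and at least one doubling.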

Vismodegib = compound: CS(=O)(=O)c1ccc(C(=O)Nc2ccc(Cl)c(-c3ccccn3)c2)c(Cl)c1 [Vismodegib]
Procedure, shortened: as §1

Ruxolitinib = compound: N#CC[C@H](C1CCCC1)n1cc(-c2ncnc3[nH]ccc23)cn1 [Ruxolitinib]
Procedure, shortened: as §1

Vismodegib + Crizotinib = compound: CS(=O)(=O)c1ccc(C(=O)Nc2ccc(Cl)c(-c3ccccn3)c2)c(Cl)c1 [Vismodegib] + C[C@@H](Oc1cc(-c2cnn(C3CCNCC3)c2)cnc1N)c1c(Cl)ccc(F)c1Cl [Crizotinib] (partner 1 µM)
Procedure, shortened: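 After 5 days of treatment, lung cancer cells in 1536-well plates were fixed and stained in a single step (final 0.05% Triton X-100, 1% formaldehyde, 1 ug/ml Hoechst) and their nuclei counted on 4× images. Treatment had been applied by pin tool the day after seeding as one drug alone or as a fixed anchor-drug dose with five library-drug doses (not always all listed) in √10 steps. Relative viability is the nuclei count of treated wells divided by that of vehicle wells, and values are medians of duplicate plates.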

Row | Cell Line | relative viability (VE-821; 0.08 µM) | relative viability (VE-821; 0.253 µM) | relative viability (VE-821; 0.8 µM) | relative viability (VE-821; 2.53 µM) | relative viability (VE-821; 8 µM) | relative viability (Vismodegib; 0.08 µM) | relative viability (Vismodegib; 0.253 µM) | relative viability (Vismodegib; 0.8 µM) | relative viability (Vismodegib; 2.53 µM) | relative viability (Vismodegib; 8 µM) | relative viability (Ruxolitinib; 0.08 µM) | relative viability (Ruxolitinib; 0.253 µM) | relative viability (Ruxolitinib; 0.8 µM) | relative viability (Ruxolitinib; 2.53 µM) | relative viability (Ruxolitinib; 8 µM) | relative viability (Vismodegib + Crizotinib; first compound 0.08 µM) | relative viability (Vismodegib + Crizotinib; first compound 0.253 µM) | relative viability (Vismodegib + Crizotinib; first compound 0.8 µM) | relative viability (Vismodegib + Crizotinib; first compound 2.53 µM) | relative viability (Vismodegib + Crizotinib; first compound 8 µM)
1 | HCC-44 | 1 | 0.962 | 1.06 | 1.04 | 1.04 | 1.01 | 0.94 | 0.938 | 0.934 | 1.01 | 0.958 | 0.939 | 1.04 | 1.02 | 0.843 | 0.782 | 0.721 | 0.829 | 0.763 | 0.783
2 | HCC-78 | 1.1 | 0.863 | 0.887 | 1.04 | 0.756 | 0.82 | 0.914 | 0.875 | 0.902 | 0.865 | 0.831 | 0.717 | 0.869 | 0.853 | 0.743 | 0.307 | 0.351 | 0.286 | 0.351 | 0.347
3 | HCC-366 | 1.06 | 1.01 | 0.85 | 0.925 | 0.191 | 0.997 | 1.04 | 0.998 | 0.984 | 1 | 1.07 | 0.984 | 1.05 | 1.03 | 0.932 | 0.623 | 0.567 | 0.501 | 0.508 | 0.566
4 | HCC-827 | 1.06 | 1.02 | 1.1 | 1.06 | 1.04 | 1.04 | 1.01 | 1.04 | 1.03 | 1.03 | – | 1.01 | 0.891 | 0.859 | 0.901 | 0.893 | 0.888 | 0.985 | 0.908 | 0.887
5 | HOP-62 | 1.11 | 0.997 | 1.02 | 1.18 | 1.02 | 0.998 | 0.954 | 0.94 | 0.96 | 1 | 0.976 | 1.04 | 1.09 | 1.05 | 0.972 | 0.991 | 0.905 | 0.867 | 0.503 | 0.908
6 | IA-LM | 1.02 | 0.874 | 0.999 | 1.06 | 0.808 | 0.883 | 0.963 | 0.964 | 0.85 | 0.876 | 0.855 | 1.02 | 1.08 | 1.05 | 0.888 | 0.719 | 0.769 | 0.906 | 0.681 | 0.94
7 | LC-2-ad | 1.07 | 0.978 | 1.05 | 1.12 | 0.995 | 1 | 0.952 | 0.939 | 0.929 | 0.907 | 0.779 | 0.971 | 1.01 | 0.842 | 0.665 | 0.419 | 0.477 | 0.434 | 0.37 | 0.469
8 | LCLC-97TM1 | 1 | 0.964 | 0.969 | 1.13 | 0.703 | 1 | 0.984 | 0.904 | 0.802 | 0.979 | 0.895 | 0.852 | 0.826 | 0.892 | 0.949 | – | – | 0.418 | – | 0.355
9 | LCLC-103H | 1.07 | 0.915 | 0.952 | 1.21 | 0.891 | 0.967 | 1.04 | 0.92 | 1.01 | 1.02 | 1.04 | 1.01 | 0.993 | 1.05 | 0.956 | 0.871 | 1.04 | 0.955 | 1.02 | 1.04
10 | LK-2 | 1.26 | 0.911 | 0.993 | 1.02 | 0.881 | 1 | 0.842 | 0.861 | 1.02 | 0.899 | 0.928 | 0.949 | 1.13 | 1.02 | 1.09 | 0.247 | 0.248 | 0.215 | 0.203 | 0.239
11 | LOU-NH91 | 1.03 | 0.946 | 0.927 | 1.03 | 0.865 | 0.918 | 0.963 | 0.946 | 0.908 | 0.958 | 0.847 | 0.957 | 1.03 | 0.933 | 0.99 | 0.726 | 0.76 | 0.704 | 0.747 | 0.728
12 | NCI-H522 | 0.974 | 0.938 | 0.934 | 1.06 | 0.849 | 0.973 | 0.876 | 0.957 | 1 | 1.01 | 1.01 | 0.95 | 1.01 | 0.895 | 0.874 | – | – | – | – | –
13 | NCI-H1395 | 0.963 | 0.89 | 0.792 | 0.888 | 0.665 | 0.834 | 0.878 | 0.853 | 0.829 | 1 | 0.816 | 0.767 | 1.02 | 0.913 | 0.771 | – | – | – | – | –
14 | NCI-H1623 | 1.06 | 0.987 | 0.84 | 1.01 | 0.809 | 0.943 | 1.01 | 1.06 | 0.978 | 1.01 | 0.942 | 0.936 | 1.14 | 1.14 | 1.28 | – | – | – | – | –
15 | NCI-H1648 | 1.21 | 0.787 | 0.876 | 0.946 | 0.674 | 1 | 0.893 | 0.766 | 0.987 | 0.74 | 0.644 | 1.02 | 1.11 | 1.25 | 1.49 | – | – | – | – | –
16 | NCI-H1793 | 0.996 | 0.744 | 0.747 | 1.16 | 0.713 | – | 0.857 | 0.96 | 0.904 | 0.784 | 0.972 | 0.928 | 1.12 | 0.946 | 0.699 | – | – | – | – | –
17 | NCI-H2342 | 1 | 0.957 | 0.939 | 0.998 | 0.807 | 0.882 | 1.07 | 0.984 | 0.742 | 0.931 | 0.981 | 0.827 | 1.09 | 1.02 | 0.964 | – | – | – | – | –
18 | SW 900 | 1.01 | 0.793 | 0.763 | 0.748 | 0.537 | 0.982 | 0.879 | 0.737 | 0.655 | 0.93 | 0.991 | 1.02 | 1.03 | 1.02 | 0.896 | – | – | – | – | –
